Measured values published in patent US20120088262A1, “CYANINE COMPOUNDS, CONJUGATES AND METHOD OF USE” (Millipore Corporation, priority 2010, published 2012).

Experiments:
[1] = Fluorescence excitation and emission spectrum of the dyes; format: physicochemical; settings: for Em / emission max / Ex Peak / excitation max: solvent not given
live and dead cells = assay: Cell viability detection with amine reactive viability dye by flow cytometry; format: cell-based; settings: mix of live and dead cells
Procedure: Pipet 100 uL of prepared cells in biological buffer or media in a reaction vessel such as a tube or microwell plate. Add 100 uL of working solution to 100 uL cell sample; mix well and incubate at the room temperature for 15 minutes. Remove supernatant without disturbing the pellet. Wash the cells with PBS with bovine serum albumin (BSA) (range 0.2-10%) per well; centrifuge plate at 1000 rpm for 5 minutes; remove the supernatant by aspiration without disturbing the cell pellet.
Cells were killed by heat or treated with diamide or staurosporine inducers.

painted cells = assay: Cell painting applications; format: cell-based

SMILES | Em ([1]; in Methanol) [nm] | Ex ([1]; in Methanol) [nm] | Em / emission max [1] [nm] | Ex Peak / excitation max [1] [nm] | separation of live and dead cells (live and dead cells) | absorption max ([1]; in Methanol) [nm] | utility for labeling and painting cells (painted cells) | retention of dye in painted cells (painted cells; 3 h time period) | localization of dye (painted cells; microscopy)
O=C(O)Cc1ccc(CN2/C(=C/C=C/c3oc4ccccc4[n+]3Cc3ccc(CC(=O)O)cc3)Oc3ccccc32)cc1.[Br-] [Compound No. 9] | 507 | 489 | 507 | 489 |  |  |  |  | 
O=C(Cc1ccc(CN2/C(=C/C=C/c3oc4ccccc4[n+]3Cc3ccc(CC(=O)ON4C(=O)CCC4=O)cc3)Oc3ccccc32)cc1)ON1C(=O)CCC1=O.[Br-] [Compound No. 10] | 508 | 490 | 507 | 489 |  |  |  |  | 
CC(C(=O)O)c1ccc(C[N+]2=C(/C=C/C=C3\Oc4ccccc4N3Cc3ccc(CC(=O)O)cc3)C(C)(C)c3cc(S(=O)(=O)[O-])ccc32)cc1 (stereo not drawn) [Compound No. 11] | 541 | 510 | 542 | 510 |  |  |  |  | 
CC(C(=O)ON1C(=O)CCC1=O)c1ccc(C[N+]2=C(/C=C/C=C3\Oc4ccccc4N3Cc3ccc(CC(=O)ON4C(=O)CCC4=O)cc3)C(C)(C)c3cc(S(=O)(=O)[O-])ccc32)cc1 (stereo not drawn) [Compound No. 12] | 541 | 510 | 541 | 510 | excellent separation of live and dead cells |  |  |  | 
CC1(C)C(/C=C/C=C/C=C2\Oc3ccccc3N2Cc2ccc(CC(=O)ON3C(=O)CCC3=O)cc2)=[N+](Cc2ccc(CC(=O)ON3C(=O)CCC3=O)cc2)c2ccc(S(=O)(=O)[O-])cc21 [Compound No. 14] | 642 | 609 | 642 | 609 | can clearly distinguish live (low fluorescence) and dead cells (high fluorescence) | 609 |  |  | 
CC1(C)C(/C=C/C=C/C=C2/N(Cc3ccc(CC(=O)O)cc3)c3ccccc3C2(C)C)=[N+](Cc2ccc(CC(=O)O)cc2)c2ccccc21.[Br-] [Compound No. 16] | 679 | 650 | 642 | 609 |  |  |  |  | 
Cc1ccc(CN2/C(=C/C=C/C3=[N+](Cc4ccc(C)cc4)c4ccccc4C3(C)C)C(C)(C)c3ccccc32)cc1.[Br-] [Compound No. 18] | 574 | 551 | 574 | 551 |  |  | good utility for painting cells |  | 
Cc1ccc(CN2/C(=C/C=C/C=C/C3=[N+](Cc4ccc(C)cc4)c4ccccc4C3(C)C)C(C)(C)c3ccccc32)cc1.[Br-] [Compound No. 19] | 674 | 650 | 674 | 650 |  |  | good utility for labeling and painting cells | good retention of dye | localized intracellularly
